Consider 21 compounds from patent publication US7285556B2, “Thienopyrimidine-based inhibitors of the src family” (Board of Regents, The University of Texas Systems, priority 2000, dated 2007).

Where two headings read alike, the source gives them in different places.

In general, IC50 refers to the concentration at which inhibition is half-maximal.

One experiment addresses T1, Csk (Homo sapiens, UniProt P41240).
T1 construct: GST (glutathione-S-transferase) (N); made in house; host or cells: E. coli (pGEX vector)
Put plainly: Csk tyrosine kinase activity, poly E4Y and 32P-ATP. The format is biochemical. The method, boiled down: (§1)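 Recombinant GST-Csk (E. coli) or baculovirus-expressed human Src assayed on poly E4Y in 0.15 M EPPS-NaOH pH 8.0, 6 mM MgCl2, 0.2 mM γ32P-ATP, 10% glycerol, 0.1% Triton X-100. Read-out is 32P incorporation into poly E4Y; for ATP variation (0–250 μM), poly E4Y held at 150 μg/ml.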

For the next experiment, the target named is FGF receptor (FGFr) (Homo sapiens, UniProt P11362). Put plainly: FGFr tyrosine kinase activity, poly E4Y and 32P-ATP. The format is biochemical. The protocol: Recombinant human Src was expressed using the baculovirus-insect cell system and purified as published (Budde et al., 1993 and 2000). Recombinant Csk and the FGF receptor (FGFr) were expressed as glutathione-S-transferase fusion proteins using the pGEX expression vector and E. coli, and purified as described (Sun & Budde, 1995). The tyrosine kinase activity of Src, Csk and FGFr was determined using poly E4Y and ^32P-ATP. Briefly, enzymes were assayed in a reaction mixture consisting of 0.15 M EPPS-NaOH (pH 8.0) with 6 mM MgCl2, 0.2 mM γ^32P-ATP (0.2-0.4 mCi/μmol), 10% glycerol, 0.1% Triton X-100, and poly E4Y. Poly E4Y is a synthetic peptide whose phosphorylation is measured in this assay by the addition of the radioactively labeled phosphate from the ATP (Budde et al., 1995). […] When ATP was varied (0, 50, 100 and 250 μM), poly E4Y was kept constant at 150 μg/ml. […] From this screening, the thienopyrimidine-based scaffold was identified as one of the chemical structures to pursue. […] These analogues were screened against Src, Csk and FGFr (Table 2, Table 3, and Table 4).
FGF receptor (FGFr), sequence (P11362 398-822): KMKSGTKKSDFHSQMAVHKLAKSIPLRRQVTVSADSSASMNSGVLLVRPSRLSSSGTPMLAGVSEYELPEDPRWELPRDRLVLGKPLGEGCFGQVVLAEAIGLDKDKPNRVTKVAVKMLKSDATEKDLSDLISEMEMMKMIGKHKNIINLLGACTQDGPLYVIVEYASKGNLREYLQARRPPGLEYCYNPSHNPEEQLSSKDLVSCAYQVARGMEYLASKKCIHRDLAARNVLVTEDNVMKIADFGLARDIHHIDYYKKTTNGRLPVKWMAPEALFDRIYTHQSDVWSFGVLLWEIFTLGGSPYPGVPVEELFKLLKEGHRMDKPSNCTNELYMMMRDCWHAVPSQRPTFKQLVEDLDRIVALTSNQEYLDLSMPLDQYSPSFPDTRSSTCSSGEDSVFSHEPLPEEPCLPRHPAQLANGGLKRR

Another experiment concerns the target T2, Recombinant human Src (Homo sapiens, UniProt P12931).
T2 construct: made in house; host or cells: baculovirus-insect cell system
Kind of experiment: Src tyrosine kinase activity, poly E4Y and 32P-ATP. In kind it is biochemical. The method, boiled down: as §1

The target in the next experiment is T3, N23 neuronal Src variant (Homo sapiens, UniProt P12931).
T3 construct: made in house
Put plainly: Testing against neuronal Src variant N23. In kind it is biochemical. As to conditions: Table 5. The protocol: (§2) The tyrosine kinase activity of Src, Csk and FGFr was determined using poly E4Y and ^32P-ATP. Briefly, enzymes were assayed in a reaction mixture consisting of 0.15 M EPPS-NaOH (pH 8.0) with 6 mM MgCl2, 0.2 mM γ^32P-ATP (0.2-0.4 mCi/μmol), 10% glycerol, 0.1% Triton X-100, and poly E4Y. Poly E4Y is a synthetic peptide whose phosphorylation is measured in this assay by the addition of the radioactively labeled phosphate from the ATP (Budde et al., 1995). […] When ATP was varied (0, 50, 100 and 250 μM), poly E4Y was kept constant at 150 μg/ml.
(§3) Thienopyrimidine-based compounds were also tested against neuronal Src variants (Table 5).

The target in the next experiment is T4, N12 neuronal Src variant (Homo sapiens, UniProt P12931).
T4 construct: made in house
Put plainly: Testing against neuronal Src variant N12. The format is biochemical. As to conditions: Table 5. As to the method:
as §2, §3

In experiment [1] the test system is osteoclastic bone resorption. As to conditions: Rodan and Martin, 2000; cited from earlier work.
[2] abbreviates: Table 4, NI = no inhibition upto 50 ug/mL.
Where [3] appears, read: screening assay, 50 μg/ml poly E4Y, 0.2 mM 32P-ATP.
The mark [4] stands for this setting: Table 2, read-out: Src IC50 (especially good inhibitors of Src).
Setting [5] is: Table 5, N6 = Src, read-out: N6(Src) IC50.
Where [6] appears, read: read-out: IC50 (preferred compounds for treatment of Src family-related disease).

T1 sequence (P41240 whole entry, species assumed): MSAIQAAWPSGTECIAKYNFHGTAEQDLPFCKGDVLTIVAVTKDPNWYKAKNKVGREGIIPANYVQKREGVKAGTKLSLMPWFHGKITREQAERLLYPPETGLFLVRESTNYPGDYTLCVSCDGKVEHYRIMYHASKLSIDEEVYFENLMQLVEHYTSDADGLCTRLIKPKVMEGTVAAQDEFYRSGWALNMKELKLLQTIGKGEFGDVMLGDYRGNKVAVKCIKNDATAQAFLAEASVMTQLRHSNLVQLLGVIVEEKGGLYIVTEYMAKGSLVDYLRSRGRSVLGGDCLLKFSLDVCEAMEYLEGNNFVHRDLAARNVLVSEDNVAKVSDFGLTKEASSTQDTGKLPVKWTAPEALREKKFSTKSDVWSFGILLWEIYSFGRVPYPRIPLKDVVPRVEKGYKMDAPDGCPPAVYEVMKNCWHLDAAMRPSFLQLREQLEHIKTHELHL

“1-Hydroxy-1-methyl-1,1-di-[3-hydroxy-4-methoxybenzaldehyde(7-methylthieno[3,2-d]pyrimidin-4-yl)hydrazone]methane [Compound 502]”: at Csk (setting [2]), the “Csk IC50” value is recorded as “NI (NI = no inhibition upto 50 ug/mL)”. At FGF receptor (FGFr) (setting [2]), the “FGFr IC50” value is listed as “NI (NI = no inhibition upto 50 ug/mL)”. For the same compound, the IC50 at Recombinant human Src (Table 4, read-out: Src IC50) came out at 8700 nM.
On to “1-Hydroxy-1-methyl-1,1-di-[4-carboxybenzaldehyde(7-methylthieno[3,2-d]pyrimidin-4-yl)hydrazone]methane [Compound 500]”, for which the IC50 on Csk (setting [2]) is 57 µM; at Recombinant human Src (Table 4, read-out: Src IC50), 5300 nM. Also, at FGF receptor (FGFr) (setting [2]), the “FGFr IC50” value was “NI (NI = no inhibition upto 50 ug/mL)”.
Turning to `Cc1csc2c(NN=Cc3ccc(C(F)(F)F)cc3)ncnc12` [Compound 9, 4-Trifluoromethylbenzaldehyde(7-methylthieno[3,2-d]pyrimidin-4-yl)hydrazone], the “Csk IC50” value on Csk (setting [3]) is on record as “NI (NI = no inhibition up to 50 ug/mL)”. Besides, the “FGFr IC50” value at FGF receptor (FGFr) (setting [3]) was “NI (NI = no inhibition up to 50 ug/mL)”.
Take `Cc1csc2c(NN=Cc3cccs3)ncnc12` [Compound 29, 2-Thiophenecarboxaldehyde(7-methylthieno[3,2-d]pyrimidin-4-yl)hydrazone]: the IC50 against Csk (setting [3]) was greater than 182 µM; at N23 neuronal Src variant, 840 nM; at Recombinant human Src (setting [4]), no more than 2000 nM; at Recombinant human Src (setting [5]), 950 nM; at Recombinant human Src (setting [6]) it was less than 2000 nM; at N12 neuronal Src variant, 1170 nM.
`COc1ccc(C=NNc2ncnc3c(C)csc23)cc1O` [Compound 51, 3-Hydroxy-4-methoxybenzaldehyde(7-methylthieno[3,2-d]pyrimidin-4-yl)hydrazone]: the IC50 against N23 neuronal Src variant is 510 nM; at Recombinant human Src (setting [4]), no more than 2000 nM; on Recombinant human Src (setting [5]) it was 510 nM; on Recombinant human Src (setting [6]), less than 2000 nM; at N12 neuronal Src variant, 1750 nM.
Regarding `Cc1csc2c(NN=Cc3cccc(Br)c3)ncnc12` [Compound 57, 3-Bromobenzaldehyde(7-methylthieno[3,2-d]pyrimidin-4-yl)hydrazone], at Csk (setting [3]), the “Csk IC50” value is listed as “NI (NI = no inhibition up to 50 ug/mL)”. Besides, at FGF receptor (FGFr) (setting [3]), the “FGFr IC50” value is given as “NI (NI = no inhibition up to 50 ug/mL)”.
Consider `C(=NNc1ncnc2cc(-c3ccccc3)sc12)c1cccnc1` [Compound 199, 3-Pyridinecarboxaldehyde(6-phenylthieno[3,2-d]pyrimidin-4-yl)hydrazone], for which the 50% inhibitory concentration (IC50) against Csk (setting [3]) was greater than 151 µM; against N23 neuronal Src variant it was 120 nM; at Recombinant human Src (setting [4]) it was no more than 2000 nM; on Recombinant human Src (setting [5]) it was 150 nM; on Recombinant human Src (setting [6]), less than 2000 nM; against N12 neuronal Src variant, 230 nM.
Take `C(=NNc1ncnc2cc(-c3ccsc3)sc12)c1cccnc1` [Compound 223, 3-Pyridinecarboxaldehyde(6-(3-thienyl)thieno[3,2-d]pyrimidin-4-yl)hydrazone]: the “Csk IC50” value on Csk (setting [3]) is recorded as “NI (NI = no inhibition up to 50 ug/mL)”. In addition, the “FGFr IC50” value on FGF receptor (FGFr) (setting [3]) is on record as “NI (NI = no inhibition up to 50 ug/mL)”.
Turning to `COc1cccc(-c2sc3c(NN=Cc4cccnc4)ncnc3c2C)c1` [Compound 426, 3-Pyridinecarboxaldehyde(6-(3-methoxyphenyl)-7-methylthieno[3,2-d]pyrimidin-4-yl)hydrazone], the IC50 is greater than 133 µM at Csk (setting [3]), no more than 2000 nM on Recombinant human Src (setting [4]) and less than 2000 nM at Recombinant human Src (setting [6]).
As for `COc1cccc(-c2sc3c(NN=Cc4cccs4)ncnc3c2C)c1` [Compound 428, 2-Thiophenecarboxaldehyde(6-(3-methoxyphenyl)-7-methylthieno[3,2-d]pyrimidin-4-yl)hydrazone], the IC50 against Csk (setting [3]) is greater than 131 µM; on Recombinant human Src (setting [4]) it was no more than 2000 nM; on Recombinant human Src (setting [6]), less than 2000 nM.
As for `COc1cccc(-c2sc3c(NN=Cc4ccc(OC)c(O)c4)ncnc3c2C)c1` [Compound 429, 3-Hydroxy-4-methoxybenzaldehyde(6-(3-methoxyphenyl)-7-methylthieno[3,2-d]pyrimidin-4-yl)hydrazone], the 50% inhibitory concentration (IC50) at Csk (setting [3]) was greater than 119 µM; on Recombinant human Src (setting [4]) it was no more than 2000 nM; on Recombinant human Src (setting [6]) it was less than 2000 nM.
In the case of `COc1ccccc1-c1sc2c(NN=Cc3cccnc3)ncnc2c1C` [Compound 432, 3-Pyridinecarboxaldehyde(6-(2-methoxyphenyl)-7-methylthieno[3,2-d]pyrimidin-4-yl)hydrazone], the results for the IC50 on Csk (setting [3]), on Recombinant human Src (setting [4]) and at Recombinant human Src (setting [6]) were greater than 133 µM, no more than 2000 nM and less than 2000 nM, respectively.
For `Cc1c(-c2ccc(CO)cc2)sc2c(NN=Cc3cccnc3)ncnc12` [Compound 436, 3-Pyridinecarboxaldehyde(6-(4-hydroxymethylphenyl)-7-methylthieno[3,2-d]pyrimidin-4-yl)hydrazone], the results for the concentration for half-maximal inhibition (IC50) against Csk (setting [3]), at Recombinant human Src (setting [4]) and on Recombinant human Src (setting [6]) were greater than 133 µM, no more than 2000 nM and less than 2000 nM, respectively.
Turning to `Cc1c(-c2ccc(CO)cc2)sc2c(NN=Cc3cccs3)ncnc12` [Compound 438, 2-Thiophenecarboxaldehyde(6-(4-hydroxymethylphenyl)-7-methylthieno[3,2-d]pyrimidin-4-yl)hydrazone], the IC50 on Csk (setting [3]) was greater than 131 µM; on Recombinant human Src (setting [4]) it was no more than 2000 nM; on Recombinant human Src (setting [6]), less than 2000 nM.
Turning to `COc1ccc(C=NNc2ncnc3c(C)c(-c4ccc(CO)cc4)sc23)cc1O` [Compound 439, 3-Hydroxy-4-methoxybenzaldehyde(6-(4-hydroxymethylphenyl)-7-methylthieno[3,2-d]pyrimidin-4-yl)hydrazone], the IC50 against Csk (setting [3]) was greater than 119 µM; at Recombinant human Src (setting [4]), no more than 2000 nM; at Recombinant human Src (setting [6]), less than 2000 nM.
Regarding `Cc1c(-c2cccc(CO)c2)sc2c(NN=Cc3cccs3)ncnc12` [Compound 442, 2-Thiophenecarboxaldehyde(6-(3-hydroxymethylphenyl)-7-methylthieno[3,2-d]pyrimidin-4-yl)hydrazone], the half-inhibitory concentration (IC50) on Csk (setting [3]) is greater than 131 µM; on Recombinant human Src (setting [4]), no more than 2000 nM; at Recombinant human Src (setting [6]) it was less than 2000 nM.
For `Cc1c(/C=C/c2ccccc2)sc2c(NN=Cc3cccnc3)ncnc12` [Compound 447, 3-Pyridinecarboxaldehyde(7-methyl-6-(trans-2-phenylvinyl)-thieno[3,2-d]pyrimidin-4-yl)hydrazone], in that order: greater than 135 µM, no more than 2000 nM and less than 2000 nM.
For the compound `COc1ccc(C=NNc2ncnc3c(C)c(C(Cc4ccccc4)c4ccccc4)sc23)cc1O` (stereo not drawn) [Compound 475, 3-Hydroxy-4-methoxybenzaldehyde(6-(1-benzyl-1-phenyl)methyl-7-methylthieno[3,2-d]pyrimidin-4-yl)hydrazone], the IC50 against Csk (poly E4Y and 32P-ATP) is greater than 101 µM; at Recombinant human Src (setting [4]), no more than 2000 nM; on Recombinant human Src (setting [6]), less than 2000 nM.
Take `CCO.Cc1csc2c(NN=Cc3cccnc3)ncnc12.Cc1csc2c(NN=Cc3cccnc3)ncnc12` [Compound 499]: at Csk (setting [2]), the “Csk IC50” value was “NI (NI = no inhibition upto 50 ug/mL)”. On FGF receptor (FGFr) (setting [2]), the “FGFr IC50” value is listed as “NI (NI = no inhibition upto 50 ug/mL)”. Moreover, the half-inhibitory concentration (IC50) at Recombinant human Src (Table 4, read-out: Src IC50) came out at 8600 nM.
For `CCO.Cc1csc2c(NN=Cc3cccs3)ncnc12.Cc1csc2c(NN=Cc3cccs3)ncnc12` [Compound 501], the “Csk IC50” value on Csk (setting [2]) is “NI (NI = no inhibition upto 50 ug/mL)”. The “FGFr IC50” value at FGF receptor (FGFr) (setting [2]) is reported as “NI (NI = no inhibition upto 50 ug/mL)”. Also, the IC50 at Recombinant human Src (Table 4, read-out: Src IC50) amounted to 10700 nM.
As for `CO[C@H]1[C@@H](OC)C[C@H](C)[C@@H](OC)C2=CC(=O)C=C(NC(=O)/C(C)=C/C=C\[C@H](OC)[C@@H](OC(N)=O)/C(C)=C/[C@@H]1C)C2=O` [Herbimycin A], the “osteoclastic bone resorption in vivo” value in experiment [1] is “inhibits osteoclastic bone resorption”.
